Measured values as given in patent US9169254B2, “Spiroimidazolone derivative” (Chugai Seiyaku Kabushiki Kaisha, priority 2009, dated 2015).

Biological target: T1, human PTH1 receptor (Homo sapiens, UniProt Q03431)
T1 sequence (Q03431 27-593): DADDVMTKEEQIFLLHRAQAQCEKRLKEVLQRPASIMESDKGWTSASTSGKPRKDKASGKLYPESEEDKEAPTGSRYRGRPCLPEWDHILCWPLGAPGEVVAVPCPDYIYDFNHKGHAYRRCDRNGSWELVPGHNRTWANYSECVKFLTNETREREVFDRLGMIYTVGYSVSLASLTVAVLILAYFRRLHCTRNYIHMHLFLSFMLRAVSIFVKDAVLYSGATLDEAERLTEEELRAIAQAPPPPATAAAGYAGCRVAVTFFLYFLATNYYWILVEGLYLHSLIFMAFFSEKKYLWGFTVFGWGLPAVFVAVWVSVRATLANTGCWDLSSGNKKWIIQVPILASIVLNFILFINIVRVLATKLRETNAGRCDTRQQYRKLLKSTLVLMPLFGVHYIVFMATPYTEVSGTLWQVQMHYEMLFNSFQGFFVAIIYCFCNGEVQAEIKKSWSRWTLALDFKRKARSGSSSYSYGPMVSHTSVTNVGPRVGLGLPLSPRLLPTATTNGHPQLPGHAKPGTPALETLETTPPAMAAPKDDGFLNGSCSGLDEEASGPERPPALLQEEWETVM
Assay: In vitro cAMP signal activity in HKRK-B7 cells (LLC-PK1 cells overexpressing the human PTH1 receptor)
Assay type: cell-based
Settings: HKRK-B7 cells; compound at 1×10^−3 M; cAMP produced as percentage of that produced by hPTH(1-34) at 100 nM

Row | cAMP production activity (%) | SMILES
1 | 106 | Cc1cc(N(C)C(N)=O)cc(C)c1CCS(=O)(=O)N1CCC2(CC1)N=C(CCCCCCC(F)(F)F)NC2=O [Compound 1045, 1-(3,5-dimethyl-4-{2-[4-oxo-2-(7,7,7-trifluoro-heptyl)-1,3,8-triaza-spiro[4.5]dec-1-ene-8-sulfonyl]-ethyl}-phenyl)-1-methyl-urea]
2 | 101 | Cc1cc(N(C)C(N)=O)cc(C)c1CCS(=O)(=O)N1CCC2(CC1)N=C(CCCCCCCCC(F)(F)F)NC2=O [Compound 1046, 1-(3,5-dimethyl-4-{2-[4-oxo-2-(9,9,9-trifluoro-nonyl)-1,3,8-triaza-spiro[4.5]dec-1-ene-8-sulfonyl]-ethyl}-phenyl)-1-methyl-urea]
3 | 82 | CC(=O)N(C)c1cc(C)c(CCS(=O)(=O)N2CCC3(CC2)N=C(CCCCCCCCC(F)(F)F)NC3=O)c(C)c1 [Compound 1047, N-(3,5-dimethyl-4-{2-[4-oxo-2-(9,9,9-trifluoro-nonyl)-1,3,8-triaza-spiro[4.5]dec-1-ene-8-sulfonyl]-ethyl}-phenyl)-N-methyl-acetamide]
4 | 96 | Cc1cc(N(C)C(N)=O)cc(C)c1CCS(=O)(=O)N1CCC2(CC1)N=C(C1(CCCC(F)(F)F)CC1)NC2=O [Compound 1048, 1-[3,5-Dimethyl-4-(2-{4-oxo-2-[1-(4,4,4-trifluoro-butyl)-cyclopropyl]-1,3,8-triaza-spiro[4.5]dec-1-ene-8-sulfonyl}-ethyl)-phenyl]-1-methyl-urea]
5 | 92 | Cc1cc(N(C)C(N)=O)cc(C)c1CCS(=O)(=O)N1CCC2(CC1)N=C(C1CCCC(C(F)(F)F)C1)NC2=O (centres unmarked) [Compound 1050, 1-(3,5-Dimethyl-4-{2-[4-oxo-2-(3-trifluoromethyl-cyclohexyl)-1,3,8-triaza-spiro[4.5]dec-1-ene-8-sulfonyl]-ethyl}-phenyl)-1-methyl-urea]
6 | 85 | Cc1cc(N(C)C(N)=O)cc(C)c1CCS(=O)(=O)N1CCC2(CC1)N=C(C1C[C@@H](C)[C@@H](C)C1)NC2=O (stereo partly drawn) [Compound 1051, 1-(4-{2-[2-(cis-3,4-dimethyl-cyclopentyl)-4-oxo-1,3,8-triaza-spiro[4.5]dec-1-ene-8-sulfonyl]-ethyl}-3,5-dimethyl-phenyl)-1-methyl-urea]
7 | 62 | Cc1cc(N(C)C(N)=O)cc(C)c1CCS(=O)(=O)N1CCC2(CC1)N=C(C(C1CC1)C1CC1)NC2=O [Compound 1052, 1-{4-[2-(2-dicyclopropylmethyl-4-oxo-1,3,8-triaza-spiro[4.5]dec-1-ene-8-sulfonyl)-ethyl]-3,5-dimethyl-phenyl}-1-methyl-urea]
8 | 70 | Cc1cc(N(C)C(N)=O)cc(C)c1CCS(=O)(=O)N1CCC2(CC1)N=C(C1C3CCCC1CCC3)NC2=O (centres unmarked) [Compound 1053, 1-{4-[2-(2-bicyclo[3.3.1]non-9-yl-4-oxo-1,3,8-triaza-spiro[4.5]dec-1-ene-8-sulfonyl)-ethyl]-3,5-dimethyl-phenyl}-1-methyl-urea]
9 | 80 | Cc1cc(N(C)C(N)=O)cc(C)c1CCS(=O)(=O)N1CCC2(CC1)N=C(C1C[C@H]3CC[C@@H](C1)C3)NC2=O (stereo partly drawn) [Compound 1054, 1-{4-[2-((1R,5S)-2-bicyclo[3.2.1]oct-3-yl-4-oxo-1,3,8-triaza-spiro[4.5]dec-1-ene-8-sulfonyl)-ethyl]-3,5-dimethyl-phenyl}-1-methyl-urea]
10 | 84 | Cc1cc(N(C)C(N)=O)cc(C)c1CCS(=O)(=O)N1CCC2(CC1)N=C(C1CCC(C)C1)NC2=O (centres unmarked) [Compound 1055, 1-(3,5-dimethyl-4-{2-[2-(3-methyl-cyclopentyl)-4-oxo-1,3,8-triaza-spiro[4.5]dec-1-ene-8-sulfonyl]-ethyl}-phenyl)-1-methyl-urea]
11 | 94 | Cc1cc(N(C)C(N)=O)cc(C)c1CCS(=O)(=O)N1CCC2(CC1)N=C(C1C3CCC1CC3)NC2=O (centres unmarked) [Compound 1056, 1-{4-[2-(2-bicyclo[2.2.1]hept-7-yl-4-oxo-1,3,8-triaza-spiro[4.5]dec-1-ene-8-sulfonyl)-ethyl]-3,5-dimethyl-phenyl}-1-methyl-urea]
